# Data as given in publication PMC8253140 (Drug Delivery, 2017).
# What was measured:
# A549T cells [1] = type: cell-based; conditions: 5 μM, 48 h, triplicate
# Method: (§1) After that, the cells were harvested by trypsinization, washed in PBS twice, and fixed in 70% cold ethanol for 24 h at 4 °C. The fixed cells were washed in cold PBS and then resuspended in 0.5 mL of PBS containing 50 μg/mL PI, 0.1% Triton-X-100, 0.1% sodium citrate, and 100 μg/mL RNase. After incubation at 4 °C in the dark for 30 min, the fluorescence-activated cells were sorted. The cellular DNA content was analyzed by flow cytometry (Becton Dickinson, Franklin Lakes, NJ). Each analysis contained at least 10 000 cells. […] The percentages of cells in different cell cycle phases were then recorded. Each experiment was performed in triplicate, and the results were expressed as the mean ± SD.
# A549 cells [2] = experiment: Cytotoxicity study, MTT colorimetric assay; conditions: A549 cells, MTT, 24 h
# Method: The inhibitory activities of the drug samples on cell growth were evaluated using a 3-(4,5-dimethylthiazol-2-yl)-2,5-diphenyltetrazolium bromide (MTT) colorimetric assay. A549 and A549T cells were harvested by trypsinization and resuspended at a concentration of 2 × 10^4 cells/mL in fresh culture medium. Then, the cells were seeded at a density of 5000 cells per well in 96-well plates. […] The concentration of the drugs ranged from 0.1 μM to 100 μM. After 24 h of incubation, the drug-containing media were abandoned, and 20 μL of MTT (5 mg/mL) solution was added to each well. The plate was incubated for an additional 4 h, and then, […] of DMSO was added to each well to dissolve any formed purple formazan crystals. The plates were vigorously shaken before measuring the relative color intensity. The absorbance at 570 nm of each well was measured with a plate reader.
# A549 cells [3] = experiment: Cell apoptosis detection, annexin V-FITC/PI flow cytometry; type: cell-based; conditions: 10 μM, 48 h, triplicate
# Method: Cell apoptosis was determined by an annexin V-FITC/PI assay. The externalization of phosphatidylserine, a result of early stage apoptosis, was detected by FITC-annexin V protein staining, and the membrane damage due to late-stage apoptosis was detected by the binding of PI to nuclear DNA. Briefly, 2 × 10^5 A549 and A549T cells were plated in 6-well plates and incubated for 24 h. After exposure to the different drugs at a concentration of 10 μM for 48 h, the cells were harvested by trypsinization, washed in PBS twice and incubated in the dark for 10 min at room temperature in 500 μL of binding buffer containing annexin V-FITC (1 μg/mL) and PI (1 μg/mL). The cells were immediately analyzed by flow cytometry (Becton Dickinson, Franklin Lakes, NJ). The fluorescence intensity of annexin V-FITC was measured at an excitation/emission wavelength of 488/530 nm and that of PI was measured at an excitation/emission wavelength of 488/617 nm. Approximately 10 000 cells were analyzed in each of the samples. Each assay was repeated in triplicate.
# A549T tumor = type: in vivo, BALB/c nude mice; conditions: A549T tumor-bearing nude mice, 1000 μM, 100 μL, peritumoral injection three times over 8 d
# Source text: (§2) The protocol to evaluate the in vivo antitumor efficacy of the PTX-CPP conjugates was approved by the ethics committee of Fudan University. Four-week-old female BALB/c nude mice were purchased and housed in the Animal Care Facilities in the School of Pharmacy, Fudan University. BALB/c mice bearing subcutaneous tumors were used as an animal model for the evaluation of the anticancer activities of PTX-LMWP and PTX-TAT. The subcutaneous tumor xenograft model was established by inoculating 2 × 10^6 A549 or A549T cells (in 100 μL of cell culture medium) into the subcutaneous tissue of the armpit of the right anterior limb (Gu et al., [2014]). Tumor size was measured with Vernier calipers for the largest (length) and smallest (width) superficial visible diameters of the protruding tumor mass through the skin. Tumor volumes were calculated according to the following formula: volume = 0.52 × W^2×L, where W and L represent the width and the length, respectively (Lee et al., [2011]). The drugs were administered 2 weeks after tumor implantation, when the size of the tumors reached approximately 100–150 mm^3. […] Each experimental group contained six mice. The mice were treated (100 μL volume) three times over 8 d via peritumoral injection. Tumor volumes were measured at 2-d intervals. At the end of the experiment, the mice were sacrificed, and necropsies were performed. The tumors were removed, weighed and fixed with formalin.
# A549 tumor = type: in vivo, BALB/c nude mice; conditions: A549 tumor-bearing nude mice, 1000 μM, 100 μL, peritumoral injection three times over 8 d
# Source text: as §2
# A549 cells [4] = experiment: Cell-cycle analysis, PI flow cytometry; type: cell-based; conditions: 5 μM, 48 h, triplicate
# Method: as §1
# A549T cells [5] = experiment: Cytotoxicity study, MTT colorimetric assay; type: cell-based; conditions: A549T cells, MTT, 24 h, concentrations below 1000 nM
# Method: The inhibitory activities of the drug samples on cell growth were evaluated using a 3-(4,5-dimethylthiazol-2-yl)-2,5-diphenyltetrazolium bromide (MTT) colorimetric assay. A549 and A549T cells were harvested by trypsinization and resuspended at a concentration of 2 × 10^4 cells/mL in fresh culture medium. Then, the cells were seeded at a density of 5000 cells per well in 96-well plates. […] The concentration of the drugs ranged from 0.1 μM to 100 μM. After 24 h of incubation, the drug-containing media were abandoned, and 20 μL of MTT (5 mg/mL) solution was added to each well. The plate was incubated for an additional 4 h, and then, 200 mL of DMSO was added to each well to dissolve any formed purple formazan crystals. The plates were vigorously shaken before measuring the relative color intensity. The absorbance at 570 nm of each well was measured with a plate reader.
# [6] = tumors dissected and weighed after 24 or 30 d, six mice per group
smiles,measurement,setting,value
"CC(=O)O[C@H]1C(=O)[C@@]2(C)[C@H]([C@H](OC(=O)c3ccccc3)[C@]3(O)C[C@H](OC(=O)[C@H](O)[C@@H](NC(=O)c4ccccc4)c4ccccc4)C(C)=C1C3(C)C)[C@]1(OC(C)=O)CO[C@@H]1C[C@@H]2O [PTX, Paclitaxel, reference compound]",effect on cell-cycle distribution,A549T cells [1],a large number of A549T cells were induced into tetraploids
same,cell viability,A549 cells [2]; concentration below 1 nM,higher than 80%
same,cell viability,A549 cells [2]; concentrations from 100 nM to 100 000 nM,40%
same,percentage of late apoptotic cells (PI+/annexin V+),A549 cells [3],13.03%
same,tumor growth (tumor volume) compared with the control,A549T tumor,no significant difference in the tumor volumes between the control and PTX groups
same,tumor inhibition rate,A549T tumor; [6],11.0%
same,tumor growth (tumor volume) compared with the control,A549 tumor,significant antitumor effect
same,tumor inhibition rate,A549 tumor; [6],31.06%
same,effect on cell-cycle distribution,A549 cells [4],substantially increased the percentages of cells in G2/M phase cell-cycle arrest
same,effect on cell viability,A549T cells [5],no effect on cell viability
